From patent US10322097B2, “Treatment of subjects with multidrug-resistant cancer” (priority 2015, dated 2019)

What was measured:
[1] = tested on: MDA-MB-231 pcDNA breast cancer cells; test: MTT cytotoxicity assay, MDA-MB-231 pcDNA; format: cell-based; conditions: Homo sapiens, MDA-MB-231, 72 h, 3 days
Experimental: (§1) Cell cultures and cytotoxicity assays have been used. Celastrol was dissolved in DMSO at a final concentration of 100 mmol/L and stored at −20° C. Cytotoxicity was assessed using the 3-(4,5-dimethylthiazol-2-yl)-2,5-diphenyltetrazolium bromide assay. 4000 cells from HEK293 and HEK293/ABCB5 kidney cancer cells or MDA-MB-231 pcDNA and MDA-MB-231/BCRP breast cancer cells were seeded on 96-well plates per well. After overnight pre-incubation, the cells were exposed to different concentrations of celastrol (0.1-10 μmol/L) for 3 days. Subsequently, 10 μL of MTT reagents were added to each well and incubated at 37° C. for 4 hours followed by the addition of 100 μL solubilization buffer (10% SDS in 0.01 mol/L HCl) and overnight incubation. Absorbance at 585 nm was determined from each well the next day. The percentage of cell viability was calculated using the following formula: Cell viability (%)=Cells number treated/Cells number DMSO control×100. Data were obtained from three independent experiments.

[2] = tested on: MDA-MB-231/BCRP breast cancer cells; test: MTT cytotoxicity assay, MDA-MB-231/BCRP; format: cell-based
Experimental: as §1

[3] = tested on: HCT116 p53-/- colon cancer cells; test: MTT cytotoxicity assay, HCT116 p53-/-; format: cell-based
Experimental: (§2) Cell cultures and cytotoxicity assays have been used. Celastrol was dissolved in DMSO at a final concentration of 100 mmol/L and stored at −20° C. Cytotoxicity was assessed using the 3-(4,5-dimethylthiazol-2-yl)-2,5-diphenyltetrazolium bromide assay. 4000 cells from HCT116 p53^+/+ or p53^−/− colon cancer cells and DLD-1 Bax-Bak^+/+ or Bax-Bak^−/− colon cancer cells were seeded on 96-well plates per well. […] Subsequently, 10 μL of MTT reagents were added to each well and incubated at 37° C. for 4 hours followed by the addition of 100 μL solubilization buffer (10% SDS in 0.01 mol/L HCl) and overnight incubation. […] The percentage of cell viability was calculated using the following formula: Cell viability (%)=Cells number treated/Cells number DMSO control×100. Data were obtained from three independent experiments.

[4] = tested on: DLD-1 Bax-Bak-/- colon cancer cells; test: MTT cytotoxicity assay, DLD-1 Bax-Bak-/-; format: cell-based
Experimental: as §2

[5] = tested on: A549 (Lung) taxol sensitive cancer cells; test: MTT cytotoxicity assay, A549 taxol sensitive; format: cell-based; conditions: Homo sapiens, A549, 72 h, read-out: IC50 A549 (Lung) (Taxol sensitive)
Experimental: as §1, with “from A549 (lung), A2780 (ovary), HCT-8 (colon)” for “from HEK293”, “and MCF-7 (breast)” for “and HEK293/ABCB5 kidney cancer cells or MDA-MB-231 pcDNA and MDA-MB-231/BCRP breast”, “celastrol (0.039-100” for “celastrol (0.1-10”, “μmol/L) or taxol” for “μmol/L)”, “reagents was” for “reagents were”

[6] = tested on: A2780 (Ovary) taxol sensitive cancer cells; test: MTT cytotoxicity assay, A2780 taxol sensitive; format: cell-based; conditions: Homo sapiens, A2780, 72 h, read-out: IC50 A2780 (Ovary) (Taxol sensitive)
Experimental: as §1, with “from A549 (lung), A2780 (ovary), HCT-8 (colon)” for “from HEK293”, “and MCF-7 (breast)” for “and HEK293/ABCB5 kidney cancer cells or MDA-MB-231 pcDNA and MDA-MB-231/BCRP breast”, “celastrol (0.039-100” for “celastrol (0.1-10”, “μmol/L) or taxol” for “μmol/L)”, “reagents was” for “reagents were”

[7] = tested on: MCF-7 (Breast) taxol sensitive cancer cells; test: MTT cytotoxicity assay, MCF-7 taxol sensitive; format: cell-based; conditions: Homo sapiens, MCF7, 72 h, read-out: IC50 MCF-7 (Breast) (Taxol sensitive)
Experimental: as §1, with “from A549 (lung), A2780 (ovary), HCT-8 (colon)” for “from HEK293”, “and MCF-7 (breast)” for “and HEK293/ABCB5 kidney cancer cells or MDA-MB-231 pcDNA and MDA-MB-231/BCRP breast”, “celastrol (0.039-100” for “celastrol (0.1-10”, “μmol/L) or taxol” for “μmol/L)”, “reagents was” for “reagents were”

[8] = tested on: MCF-7 (Breast) taxol resistant cancer cells; test: MTT cytotoxicity assay, MCF-7 taxol resistant; format: cell-based, human
Experimental: as §1, with “from A549 (lung), A2780 (ovary), HCT-8 (colon)” for “from HEK293”, “and MCF-7 (breast)” for “and HEK293/ABCB5 kidney cancer cells or MDA-MB-231 pcDNA and MDA-MB-231/BCRP breast”, “celastrol (0.039-100” for “celastrol (0.1-10”, “μmol/L) or taxol” for “μmol/L)”, “reagents was” for “reagents were”

[9] = tested on: MCF-7 (Breast) doxorubicin sensitive cancer cells; test: MTT cytotoxicity assay, MCF-7 doxorubicin sensitive; format: cell-based; conditions: Homo sapiens, MCF7, 72 h, read-out: IC50 MCF-7 (Breast) (Doxorubicin sensitive)
Experimental: as §1, with “MCF-7 doxorubicin sensitive/resistant breast” for “HEK293 and HEK293/ABCB5 kidney”, “CEM doxorubicin sensitive/resistant leukemia” for “MDA-MB-231 pcDNA and MDA-MB-231/BCRP breast cancer”, “(0.039-100” for “(0.1-10”, “μmol/L) or doxorubicin” for “μmol/L)”

[10] = tested on: SGC-7901 (Gastric) cisplatin resistant cancer cells; test: MTT cytotoxicity assay, SGC-7901 cisplatin resistant; format: cell-based, human
Experimental: as §1, with “A2780 cisplatin sensitive/resistant ovarian” for “HEK293 and HEK293/ABCB5 kidney”, “SGC-7901 cisplatin sensitive/resistant gastric” for “MDA-MB-231 pcDNA and MDA-MB-231/BCRP breast”, “(0.039-100” for “(0.1-10”, “μmol/L) or cisplatin” for “μmol/L)”

CC1=C(O)C(=O)C=C2C1=CC=C1[C@@]2(C)CC[C@@]2(C)[C@@H]3C[C@](C)(C(=O)O)CC[C@]3(C)CC[C@]12C [Celastrol, celastrol] was tested, and the IC50 [1] was 4.83 µM, the “Resistant Factor” value ([2]; IC50 MDA-MB-231/BCRP divided by IC50 MDA-MB-231 pcDNA) was 1.28 and the IC50 ([2]; MDA-MB-231/BCRP, 72 h, MTT, 3 days) was 6.19 µM. The IC50 ([3]; Homo sapiens, HCT-116, 72 h, read-out: IC50 HCT116 p53-/- colon cancer cells) was 0.484 µM, the “Resistant Factor” value ([3]; IC50 HCT116 p53-/- divided by IC50 HCT116 p53+/+) was 0.58 and the IC50 ([4]; Homo sapiens, DLD-1, 72 h, read-out: IC50 DLD-1 Bax-Bak-/- colon cancer cells) was 0.184 µM. The “Resistant Factor” value ([4]; IC50 DLD-1 Bax-Bak-/- divided by IC50 DLD-1 Bax-Bak+/+) was 0.32, the IC50 [5] was 2.4 µM and the IC50 [6] was 0.902 µM. For the same compound, the IC50 [7] was 1.12 µM, the IC50 ([8]; Homo sapiens, MCF7, 72 h, read-out: IC50 MCF-7 (Breast) (Taxol resistant)) was 0.73 µM and the “Resistant Factor” value ([8]; MCF-7 taxol resistant versus taxol sensitive) was 0.65. The IC50 [9] was 1.13 µM, the IC50 ([10]; Homo sapiens, SGC-7901, 72 h, read-out: IC50 SGC-7901 (Gastric) (Cisplatin resistant)) was 1.72 µM and the “Resistant Factor” value ([10]; SGC-7901 cisplatin resistant versus cisplatin sensitive) was 0.88.
